# Measurements from patent publication US9670162B2, “Mitochondrial aldehyde dehyrogenase-2 modulators and methods of use thereof” (The Board of Trustees of the Leland Stanford Junior …, priority 2013, dated 2017).
# Numbering of substitutions follows the chain as printed.
# How the values were obtained:
# [1] = biological target: T1, human ALDH2 wild type (Homo sapiens, UniProt P05091); assay: ALDH2 enzymatic assay (NADH at 340 nm), recombinant wild type enzyme; assay type: biochemical; design: key: −: no activation or inhibition; +: activation less than control 1; ++: activation similar to control 1, within 10%; +++: activation more than control 1 and less than control (compound 161); ++++: activation similar to compound 161, within 10%; settings: activation relative to benchmarks control 1 and compound 161
# T1 construct: His-tag (pTrcHis vector) (N); made in house; host or cells: E. coli BL21
# T1 sequence (P05091 18-517): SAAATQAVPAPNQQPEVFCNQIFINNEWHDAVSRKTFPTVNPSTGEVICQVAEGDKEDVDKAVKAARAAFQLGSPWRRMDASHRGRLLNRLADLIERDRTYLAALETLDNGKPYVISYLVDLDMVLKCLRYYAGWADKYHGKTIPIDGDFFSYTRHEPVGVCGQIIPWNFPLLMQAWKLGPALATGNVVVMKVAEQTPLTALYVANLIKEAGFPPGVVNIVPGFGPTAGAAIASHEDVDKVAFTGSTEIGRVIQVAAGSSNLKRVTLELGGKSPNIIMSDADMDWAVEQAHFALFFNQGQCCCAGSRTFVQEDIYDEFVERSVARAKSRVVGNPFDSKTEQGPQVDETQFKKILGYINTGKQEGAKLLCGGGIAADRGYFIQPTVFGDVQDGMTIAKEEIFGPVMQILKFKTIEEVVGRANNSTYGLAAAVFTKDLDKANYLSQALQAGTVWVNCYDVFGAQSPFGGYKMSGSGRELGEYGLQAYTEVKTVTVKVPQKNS
# Text: (§1) ALDH2 catalyzes the oxidative reaction of substrate acetaldehyde to acetic acid using NAD^+ as a cofactor. Enzymatic activity, or catalytic rate, of aldehyde dehydrogenase (ALDH2) can be measured spectrophotometrically at UV wavelength λ340 nm by the accumulation of reduced product NADH derived from NAD^+. […] This method is well-established in the literature [e.g. D. K. Rex, W. F. Bosron, J. E. Smialek, T. K. Li, Alcohol Clin Exp Res 9, 147 (1985)].
# (§2) Full-length wild type human ALDH2 cDNA was purchased from ATCC (No. MGC-1806. GenBank ID: BC002967). The 18-amino acid mitochondria transport signal sequence was removed by PCR and cloned into the NheI/HindIII sites of a His-tag vector, pTrcHis, using standard molecular cloning techniques. The human ALDH2* cDNA construct containing the Asian E487K mutation was obtained by site-directed mutagenesis to create the E487K substitution of the wild type ALDH2. Both human clones were designed to express a recombinant protein with the His-tag at the N-terminus of the protein. For the co-expression experiments of human ALDH2 wild type and ALDH2*2 heterotetramers, a wild type ALDH2 gene and a ALDH2 E487K gene were inserted separately into the two multiple cloning sites of pETDuet-1 vector. (Novagen, Calif., USA). All the vectors were transformed into BL21 E. coli host cells and subjected to 0.5 mM IPTG induction for protein expression at 30° C. Purifications of the recombinant proteins by affinity nickel columns (HisTrap, GE Healthy Science, USA) were carried out using standard protocols according to manufacturer's instructions (Novagen, USA).
# (§3) Control 1 and compound 161 are used as benchmarks and the symbols have the following representation: […]
# [2] = biological target: T2, human ALDH2*2 recombinant mutant enzyme (E487K) (Homo sapiens, UniProt P05091, E504K); assay: ALDH2 enzymatic assay (NADH at 340 nm), recombinant mutant enzyme; assay type: biochemical; design: key: −: no activation or inhibition; +: activation less than control 1; ++: activation similar to control 1, within 10%; +++: activation more than control 1 and less than control (compound 161); ++++: activation similar to compound 161, within 10%; settings: activation relative to benchmarks control 1 and compound 161
# T2 construct: His-tag (pTrcHis vector) (N); made in house; host or cells: E. coli BL21
# T2 sequence (P05091 18-517 E504K): T1 sequence (P05091 18-517) with E487K
# Text: as §1, §2, §3
Structure (SMILES),ALDH2 (wild-type) [1],ALDH2 (mutant) [2]
COc1ccc(CNC(=O)c2c(Cl)cccc2OCC(C)C)cc1F [Compound 149],++++,++++
Cc1nc2ccc(CNC(=O)c3c(Cl)ccnc3OCC3CC3)cc2[nH]1 [Compound 261],+,+
COc1cc(CNC(=O)c2c(Cl)ccnc2OCC2CC2)ccc1F [Compound 172],+,+
COc1ccc(CNC(=O)c2c(Cl)cccc2Oc2cccc(Cl)c2)cc1F [Compound 136],++,++
COc1ccc(CNC(=O)c2c(C(F)(F)F)ccnc2OCC(C)C)cc1F [Compound 226],+,+
COc1ccc(CNC(=O)c2c(OC)ccnc2OCC2CC2)cc1F [Compound 251],+,+
COc1ccc(CNC(=O)c2c(Cl)ccnc2OC(C)C)cc1F [Compound 195],++,++
COc1ccc(CNS(=O)(=O)c2c(Cl)cccc2NCC2CC2)cc1F [Compound 163],+,+
COc1ccc(CNC(=O)c2c(Cl)ccn(C)c2=O)cc1F [Compound 273],+,+
COc1ccc(CN(C)C(=O)c2c(Cl)ccnc2OCC2CC2)cc1F [Compound 247],−,−
COc1ccc(CNC(=O)c2ccc(Br)cc2C)cc1 [Compound 116],+,+
CCCSc1nccc(Cl)c1C(=O)NCc1ccc(OC)c(F)c1 [Compound 215],++++,+++
COc1cccc(CNC(=O)c2c(Cl)cccc2Cl)c1 [Compound 103],+,+
COc1cc(F)c(CNC(=O)c2c(Cl)ccnc2OCC(C)C)cc1F [Compound 269],++++,++++
O=C(NCc1ccc(=O)[nH]c1)c1c(Cl)ccnc1OCC1CC1 [Compound 254],+,+
COc1ccc(CNC(=O)c2c(Cl)ccnc2SC)cc1F [Compound 213],++,++
COc1ccc(CNC(=O)c2c(Cl)ccnc2OCC(C)C)cc1F [Compound 183],++,++
COc1ccc(CNC(=O)c2c(Cl)ccnc2Cl)cc1F [Compound 157],++,++
COc1ccc(CNC(=O)c2c(Cl)cncc2OCC2CC2)cc1F [Compound 239],++,+++
COc1ccc(CNC(=O)c2c(Cl)cccc2Br)cc1 [Compound 108],++,+
CCC(CC)Oc1nccc(Cl)c1C(=O)NCc1ccc(OC)c(F)c1 [Compound 201],++,++

Structure (SMILES),ALDH2 (wild-type) [1],ALDH2 (mutant) [2]
COc1ccc(CNC(=O)c2c(C)ccnc2OC(C)C)cc1F [Compound 233],+,+
COc1ccc(CNC(=O)c2c(Cl)cccc2Oc2cccc(C)c2)cc1F [Compound 131],+,+
COc1ccc(CNC(=O)c2c(Cl)cc[n+]([O-])c2Cl)cc1F [Compound 168],+,+
COc1ccc(CNC(=O)c2ccc(Br)cc2C)cc1F [Compound 124],+,+
COc1ccc(CNC(=O)c2c(Cl)ccnc2NCC(C)O)cc1F (stereo not shown) [Compound 185],+,+
CCCS(=O)(=O)c1nccc(Cl)c1C(=O)NCc1ccc(OC)c(F)c1 [Compound 221],+,+
COc1ccc(CNC(=O)c2c(C)ccnc2OC2CCC2)cc1F [Compound 238],+,+
COc1ccc(CNC(=O)c2c(C)ccnc2OCC2CCNC2)cc1F (stereo not shown) [Compound 237],+,+
COc1ccc(C(C)NC(=O)c2c(Cl)ccnc2OCC2CC2)cc1F (stereo not shown) [Compound 249],+,+
COc1ccc(CNC(=O)c2c(Cl)ccnc2OC)cc1F [Compound 192],+++,+++
O=C(NCc1ccc([N+](=O)[O-])cc1)c1c(Cl)cccc1Br [Compound 128],+,+
COc1ccc(CNC(=O)c2c(Cl)ccnc2OCC2CCCN2)cc1F (stereo not shown) [Compound 204],+,+
O=C(NCc1ccc(OC(F)(F)F)c(F)c1)c1c(Cl)ccnc1OCC1CC1 [Compound 187],+,++
O=C(NCc1ccc(F)c(F)c1)c1c(Cl)cccc1OCC1CC1 [Compound 155],+,++
COc1ccc(CNC(=O)c2cc(Br)ccc2C)cc1 [Compound 115],+,+
COc1ccc(CNC(=O)c2c(Cl)cccc2OCC2CC2C)cc1F (stereo not shown) [Compound 152],+++,+++
COc1c(F)cc(CNC(=O)c2c(Cl)ccnc2OCC(C)C)cc1F [Compound 252],+,+
COc1ccc(CNC(=O)c2c(Cl)cccc2Oc2ccc(C)cc2)cc1F [Compound 132],+,+
CCC(C)Oc1nccc(Cl)c1C(=O)NCc1ccc(OC)c(F)c1 (stereo not shown) [Compound 202],++,+
COc1ccc(CNC(=O)c2c(Cl)ccnc2S(C)(=O)=O)cc1F [Compound 219],+,+
